Patent publication US4032633A, “Polypeptides” (Imperial Chemical Industries Limited, priority 1974, dated 1977)

System: secretion of acidic gastric juice stimulated with histamine
Experiment: Inhibition of histamine-stimulated secretion of acidic gastric juice in dogs with a Heidenhain pouch, single intravenous injection
Assay type: in vivo, dog
Details: column fractions or products assayed in histamine-stimulated pouch dogs
Experimental: This test is used to determine the biological potency of the products, which is defined as the amount of the product expressed in μg./kg. which, on administration by intravenous injection to a dog provided with a Heidenhain pouch and whose secretion of gastric acid is stimulated to 60-89% of the maximum level of secretion by an infusion of histamine, causes a 50-70% inhibition of that acid secretion. Some variation in the biological potency of a particular sample is found if it is measured in different dogs and on different occasions, and so the result is best expressed as a dose range. The physiological effect of inhibiting the secretion of acidic gastric juice is of value in the treatment of duodenal ulcers, and under the test conditions, no serious toxic effects were observed. The polypeptides also show ulcer healing properties in a standard test. […]
Dogs were prepared with separated denervated fundic pouches, and a subcutaneous infusion of histamine was used to stimulate gastric secretion to approximately 60-80% of the maximal rate [usually an infusion of a solution of 600 μg. of histamine (expressed as base) in 0.48 ml. per hour was adequate]. […]
The specific activity may be determined from the results obtained for several different doses.

Substance: material in fractions 38-52: hexapeptide liberated from β-urogastrone: Glu 1, Leu 1, Lys 1, Trp 2, Arg 1, lysine at the N-terminus (KWWELR; Epidermal growth factor; UniProt P01133 1018-1023, looked up, fragment)
- biological activity (inhibition of gastric secretion), in words: biologically inactive

Substance: material in fractions 49-65: pentapeptide liberated from γ-urogastrone: Glu 1, Leu 1, Lys 1, Trp 2, lysine at the N-terminus (KWWEL; Epidermal growth factor; UniProt P01133 1018-1022, looked up, fragment)
- biological activity (inhibition of gastric secretion), in words: biologically inactive
